This assay addresses human cannabinoid receptor 2 (hCB2R) (Homo sapiens, UniProt P34972). The format is binding.

Structures are written as SMILES.

Sequence of human cannabinoid receptor 2 (hCB2R) (P34972 whole entry): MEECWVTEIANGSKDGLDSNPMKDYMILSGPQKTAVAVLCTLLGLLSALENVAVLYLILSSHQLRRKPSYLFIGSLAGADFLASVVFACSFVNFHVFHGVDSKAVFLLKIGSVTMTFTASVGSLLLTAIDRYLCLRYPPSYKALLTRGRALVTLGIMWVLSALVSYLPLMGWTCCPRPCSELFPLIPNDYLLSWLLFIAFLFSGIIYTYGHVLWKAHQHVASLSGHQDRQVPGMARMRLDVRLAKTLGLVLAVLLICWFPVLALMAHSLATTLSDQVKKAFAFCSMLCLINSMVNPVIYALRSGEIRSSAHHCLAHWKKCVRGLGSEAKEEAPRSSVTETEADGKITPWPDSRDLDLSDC

In the case of `CC(C)(CCCCCCN=C=S)c1cc(O)c2c(c1)OC(C)(C)[C@H]1CC[C@@H](CO)C[C@@H]21` [AM-841], the “% (TMH6 covalently modified)” value is ~ 75 % (TMH6 covalently modified).

Source of the values: paper PMC3189276 (2011).
